≈ marks a conversion by molar mass, not a printed value.
Legend:
Assay in all cases: Colony assay of hematopoietic progenitors
Format in all cases: cell-based
Conditions in all cases: Homo sapiens, read-out: IC50 for colony formation
CFU-GM = tested on: CFU-GM
CFU-Mix = tested on: CFU-Mix
BFU-E = tested on: BFU-E

IC50 (CFU-GM): 4.4 ng/mL (≈ 8.14 nM)
IC50 (CFU-Mix): 7.8 ng/mL (≈ 14.4 nM)
IC50 (BFU-E): 3.1 ng/mL (≈ 5.73 nM)
Compound: C/C=C1\NC(=O)[C@H]2CSSCC/C=C/[C@H](CC(=O)N[C@H](C(C)C)C(=O)N2)OC(=O)[C@H](C(C)C)NC1=O [FK228]
